PubChem BioAssay (NCI)
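The compound was tested at five concentrations on cells cultured in 96-well plates, with a 48-hour exposure period. TGI denotes the concentration required for complete inhibition of growth.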

Assays:
Assay in all cases: NCI-60 cell line screen, 48 h
LOX IMVI melanoma = tested on: LOX IMVI melanoma
NCI-H460 lung = tested on: NCI-H460 lung
SF-295 CNS = tested on: SF-295 CNS
HOP-62 NSCLC = tested on: HOP-62 NSCLC
BT-549 breast = tested on: BT-549 breast
EKVX NSCLC = tested on: EKVX NSCLC
UACC-62 melanoma = tested on: UACC-62 melanoma
OVCAR-8 ovarian = tested on: OVCAR-8 ovarian
MDA-MB-435 = tested on: MDA-MB-435
A549 NSCLC = tested on: A549 NSCLC
HOP-92 NSCLC = tested on: HOP-92 NSCLC
OVCAR-5 ovarian = tested on: OVCAR-5 ovarian
NCI-H522 lung = tested on: NCI-H522 lung
UACC-257 melanoma = tested on: UACC-257 melanoma
OVCAR-3 ovarian = tested on: OVCAR-3 ovarian
NCI-H23 lung = tested on: NCI-H23 lung
TK-10 renal = tested on: TK-10 renal
SF-268 CNS = tested on: SF-268 CNS
MDA-N = tested on: MDA-N
ACHN renal = tested on: ACHN renal
HCT-116 colon = tested on: HCT-116 colon
CAKI-1 renal = tested on: CAKI-1 renal
RPMI-8226 leukemia = tested on: RPMI-8226 leukemia
UO-31 renal = tested on: UO-31 renal
CCRF-CEM leukemia = tested on: CCRF-CEM leukemia
NCI/ADR-RES ovarian = tested on: NCI/ADR-RES ovarian
SW-620 colon = tested on: SW-620 colon
IGROV1 ovarian = tested on: IGROV1 ovarian
MCF7 breast = tested on: MCF7 breast
HT29 colon = tested on: HT29 colon
786-0 renal = tested on: 786-0 renal
HCT-15 colon = tested on: HCT-15 colon
SNB-19 CNS = tested on: SNB-19 CNS
M14 melanoma = tested on: M14 melanoma
MDA-MB-231 breast = tested on: MDA-MB-231 breast
MALME-3M melanoma = tested on: MALME-3M melanoma
SK-MEL-5 melanoma = tested on: SK-MEL-5 melanoma
SK-OV-3 ovarian = tested on: SK-OV-3 ovarian
KM12 colon = tested on: KM12 colon
PC-3 prostate = tested on: PC-3 prostate
SK-MEL-2 melanoma = tested on: SK-MEL-2 melanoma
U251 CNS = tested on: U251 CNS
MOLT-4 leukemia = tested on: MOLT-4 leukemia
T-47D breast = tested on: T-47D breast
COLO 205 colon = tested on: COLO 205 colon
DU-145 prostate = tested on: DU-145 prostate
SF-539 CNS = tested on: SF-539 CNS
HS 578T breast = tested on: HS 578T breast
SN12C renal = tested on: SN12C renal
HCC-2998 colon = tested on: HCC-2998 colon
K-562 leukemia = tested on: K-562 leukemia
RXF 393 renal = tested on: RXF 393 renal
NCI-H226 lung = tested on: NCI-H226 lung
SR leukemia = tested on: SR leukemia
SK-MEL-28 melanoma = tested on: SK-MEL-28 melanoma
A498 renal = tested on: A498 renal
SNB-75 CNS = tested on: SNB-75 CNS

`O=c1cc(CO)n(CCc2c[nH]c3ccccc23)cc1O` gave a TGI (LOX IMVI melanoma) of over 100 µM, a TGI (NCI-H460 lung) of over 100 µM and a TGI (SF-295 CNS) of over 100 µM. It also gave a TGI (HOP-62 NSCLC) of over 100 µM, a TGI (BT-549 breast) of over 100 µM and a TGI (EKVX NSCLC) of over 100 µM. For the same molecule, the TGI (UACC-62 melanoma) was over 100 µM, the TGI (OVCAR-8 ovarian) was over 100 µM and the TGI (MDA-MB-435) was over 100 µM. It also gave a TGI (A549 NSCLC) of over 100 µM, a TGI (HOP-92 NSCLC) of 99.7 µM and a TGI (OVCAR-5 ovarian) of over 100 µM. For the same molecule, the TGI (NCI-H522 lung) was 78.7 µM, the TGI (UACC-257 melanoma) was over 100 µM and the TGI (OVCAR-3 ovarian) was 75.1 µM. For the same molecule, the TGI (NCI-H23 lung) was over 100 µM, the TGI (TK-10 renal) was over 100 µM and the TGI (SF-268 CNS) was 53.2 µM. The TGI (MDA-N) was over 100 µM, the TGI (ACHN renal) was over 100 µM and the TGI (HCT-116 colon) was over 100 µM. The TGI (CAKI-1 renal) was over 100 µM, the TGI (RPMI-8226 leukemia) was over 100 µM and the TGI (UO-31 renal) was over 100 µM. For the same molecule, the TGI (CCRF-CEM leukemia) was 69.8 µM, the TGI (NCI/ADR-RES ovarian) was 99.6 µM and the TGI (SW-620 colon) was over 100 µM. It also gave a TGI (IGROV1 ovarian) of over 100 µM, a TGI (MCF7 breast) of 59.6 µM and a TGI (HT29 colon) of over 100 µM. The TGI (786-0 renal) was 98.1 µM, the TGI (HCT-15 colon) was over 100 µM and the TGI (SNB-19 CNS) was over 100 µM. It also gave a TGI (M14 melanoma) of over 100 µM, a TGI (MDA-MB-231 breast) of over 100 µM and a TGI (MALME-3M melanoma) of 57.5 µM. It also gave a TGI (SK-MEL-5 melanoma) of over 100 µM, a TGI (SK-OV-3 ovarian) of over 100 µM and a TGI (KM12 colon) of over 100 µM. For the same molecule, the TGI (PC-3 prostate) was over 100 µM, the TGI (SK-MEL-2 melanoma) was over 100 µM and the TGI (U251 CNS) was over 100 µM. For the same molecule, the TGI (MOLT-4 leukemia) was 47.8 µM, the TGI (T-47D breast) was 80.5 µM and the TGI (COLO 205 colon) was over 100 µM. The TGI (DU-145 prostate) was 83.3 µM, the TGI (SF-539 CNS) was over 100 µM and the TGI (HS 578T breast) was over 100 µM. For the same molecule, the TGI (SN12C renal) was over 100 µM.
`Nc1ccc(-c2ncc3cc(-c4cccc(-c5cc6cnc(-c7ccc(N)cc7)nc6c6ccccc56)c4)c4ccccc4c3n2)cc1` was tested, and the TGI (LOX IMVI melanoma) was over 100 µM, the TGI (NCI-H460 lung) was over 100 µM and the TGI (SF-295 CNS) was over 100 µM. For the same molecule, the TGI (HOP-62 NSCLC) was over 100 µM, the TGI (HCC-2998 colon) was over 100 µM and the TGI (BT-549 breast) was over 100 µM. The TGI (K-562 leukemia) was over 100 µM, the TGI (EKVX NSCLC) was over 100 µM and the TGI (UACC-62 melanoma) was over 100 µM. It also gave a TGI (OVCAR-8 ovarian) of over 100 µM, a TGI (MDA-MB-435) of over 100 µM and a TGI (A549 NSCLC) of over 100 µM. It also gave a TGI (HOP-92 NSCLC) of over 100 µM, a TGI (OVCAR-5 ovarian) of over 100 µM and a TGI (NCI-H522 lung) of over 100 µM. For the same molecule, the TGI (UACC-257 melanoma) was over 100 µM, the TGI (OVCAR-3 ovarian) was over 100 µM and the TGI (NCI-H23 lung) was over 100 µM. It also gave a TGI (TK-10 renal) of over 100 µM, a TGI (SF-268 CNS) of over 100 µM and a TGI (MDA-N) of over 100 µM. The TGI (ACHN renal) was over 100 µM, the TGI (HCT-116 colon) was over 100 µM and the TGI (RXF 393 renal) was over 100 µM. It also gave a TGI (CAKI-1 renal) of over 100 µM, a TGI (RPMI-8226 leukemia) of over 100 µM and a TGI (UO-31 renal) of over 100 µM. The TGI (CCRF-CEM leukemia) was over 100 µM, the TGI (NCI/ADR-RES ovarian) was over 100 µM and the TGI (SW-620 colon) was over 100 µM. It also gave a TGI (NCI-H226 lung) of over 100 µM, a TGI (IGROV1 ovarian) of over 100 µM and a TGI (SR leukemia) of over 100 µM. It also gave a TGI (MCF7 breast) of over 100 µM, a TGI (HT29 colon) of over 100 µM and a TGI (786-0 renal) of over 100 µM. For the same molecule, the TGI (HCT-15 colon) was over 100 µM, the TGI (SNB-19 CNS) was over 100 µM and the TGI (M14 melanoma) was over 100 µM. The TGI (MDA-MB-231 breast) was over 100 µM, the TGI (SK-MEL-28 melanoma) was over 100 µM and the TGI (SK-MEL-5 melanoma) was over 100 µM. It also gave a TGI (SK-OV-3 ovarian) of over 100 µM, a TGI (KM12 colon) of over 100 µM and a TGI (PC-3 prostate) of over 100 µM. The TGI (SK-MEL-2 melanoma) was over 100 µM, the TGI (U251 CNS) was over 100 µM and the TGI (MOLT-4 leukemia) was over 100 µM. For the same molecule, the TGI (T-47D breast) was over 100 µM, the TGI (COLO 205 colon) was over 100 µM and the TGI (DU-145 prostate) was over 100 µM. For the same molecule, the TGI (A498 renal) was over 100 µM, the TGI (SF-539 CNS) was over 100 µM and the TGI (HS 578T breast) was over 100 µM. For the same molecule, the TGI (SNB-75 CNS) was over 100 µM and the TGI (SN12C renal) was over 100 µM.
